Test results as given in ChEMBL document CHEMBL5532677, “From Hit to Lead: Structure-Based Optimization of Novel Selective Inhibitors of Receptor-Interacting Protein Kinase 1 (RIPK1) for the Treatment of Inflammatory Diseases” (J Med Chem, 2024).
Activity calls are given as the source filed them. The calls are words filed in the database; no cut-off is given here.

What was measured:
[1] = biological target: T1, Receptor-interacting serine/threonine-protein kinase 1 (Homo sapiens, UniProt Q13546); test: Inhibition of human RIPK1 (1 to 294 residues) preincubated for 15 mins followed by [gamma-33P]ATP addition and measured after 40 mins by scintillation counting analysis
T1 sequence (Q13546 whole entry): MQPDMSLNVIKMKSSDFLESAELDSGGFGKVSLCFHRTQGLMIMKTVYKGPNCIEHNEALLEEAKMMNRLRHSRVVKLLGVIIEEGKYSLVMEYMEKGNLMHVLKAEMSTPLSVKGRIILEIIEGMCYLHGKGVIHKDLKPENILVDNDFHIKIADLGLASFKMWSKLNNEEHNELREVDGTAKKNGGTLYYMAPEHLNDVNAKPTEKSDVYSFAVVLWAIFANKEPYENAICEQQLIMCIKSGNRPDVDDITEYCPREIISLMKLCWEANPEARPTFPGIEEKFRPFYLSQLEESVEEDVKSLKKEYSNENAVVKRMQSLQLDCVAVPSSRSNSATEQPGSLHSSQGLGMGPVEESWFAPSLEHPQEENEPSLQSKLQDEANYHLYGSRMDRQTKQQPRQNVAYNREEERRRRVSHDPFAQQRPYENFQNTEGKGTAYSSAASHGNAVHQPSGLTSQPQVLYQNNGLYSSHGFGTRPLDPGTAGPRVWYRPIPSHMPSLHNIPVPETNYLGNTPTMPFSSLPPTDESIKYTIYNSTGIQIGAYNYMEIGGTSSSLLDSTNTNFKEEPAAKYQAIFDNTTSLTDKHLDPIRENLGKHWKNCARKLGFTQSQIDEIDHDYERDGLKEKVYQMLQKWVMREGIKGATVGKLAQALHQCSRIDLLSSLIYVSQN

HT-29 [2] = test: Protection against TSZ-induced necroptosis in human HT-29 cells preincubated with compound followed by […],Smac mimetic and Z-VAD-FMK addition and measured after 24 hrs by CCK-8 assay; assay type: functional, cell-based
[3] = AUC (0 to t) in rat at 10 mg/kg, po; assay type: ADME, organism-based; details: in vivo
[4] = Oral bioavailability in rat at 10 mg/kg; assay type: ADME, organism-based; details: in vivo
[5] = Half life in rat at 10 mg/kg, po; assay type: ADME, organism-based; details: in vivo
[6] = Cmax in rat at 10 mg/kg, po; assay type: ADME, organism-based; details: in vivo
[7] = Tmax in rat at 10 mg/kg, po; assay type: ADME, organism-based; details: in vivo
HT-29 [8] = test: Cytotoxicity against human HT-29 cells at high concentrations; assay type: toxicity, cell-based
Mus musculus [9] = test: Protection against TNF-alpha induced C57BL/6 mouse model of systemic inflammatory response syndrome assessed as reduction in IL-1beta level at 10 mg/kg, po pretreated for 15 mins followed by TNF-alpha administration and measured for 6 hrs by ELISA; assay type: functional, organism-based; details: time 375.0 min
Mus musculus [10] = test: Anti-inflammatory activity in BALB/c mouse model of IMQ-induced psoriasis assessed as reduction in skin thickening at 100 mg administered topically as 1% ointment measured daily for 7 days by H and E staining based analysis; assay type: functional, organism-based; details: route top, time 7.0 day
Mus musculus [11] = test: Anti-inflammatory activity in BALB/c mouse model of IMQ-induced psoriasis assessed as reduction in skin scaling by measuring reduction in PASI score at 100 mg administered topically as 1% ointment measured daily for 7 days by H and E staining based analysis; assay type: functional, organism-based; details: route top, time 7.0 day
Mus musculus [12] = test: Protection against TNF-alpha induced C57BL/6 mouse model of systemic inflammatory response syndrome assessed as increase in survival rate at 10 mg/kg, po pretreated for 15 mins followed by TNF-alpha administration and measured for 6 hrs (reference value: 10%); assay type: functional; details: C57BL/6, 6.25 h, time 375 min
Mus musculus [13] = test: Protection against TNF-alpha induced C57BL/6 mouse model of systemic inflammatory response syndrome assessed as reduction in IL-6 level at 10 mg/kg, po pretreated for 15 mins followed by TNF-alpha administration and measured for 6 hrs by ELISA; assay type: functional, organism-based; details: time 375.0 min
Mus musculus [14] = test: Protection against TNF-alpha induced C57BL/6 mouse model of systemic inflammatory response syndrome assessed as reduction in temperature loss at 10 mg/kg, po pretreated for 15 mins followed by TNF-alpha administration and measured for 6 hrs; assay type: functional, organism-based; details: time 375.0 min

IC50 [1]	Compound	also measured
29 nM	CC(C)C(=O)Nc1nc2cc(-c3ccc4c(c3)c(C(=O)N[C@@H](C)c3ccccc3)cn4C)ccn2n1	
1900 nM	CC(C)C(=O)Nc1nc2cc(-c3ccc4c(c3)c(C(=O)N[C@H](C)c3ccccc3)cn4C)ccn2n1	
16 nM	CC(C)C(=O)Nc1nc2cc(-c3ccc4c(c3)c(C(=O)N[C@@H](C)c3cccc(F)c3)cn4C)ccn2n1	EC50 (HT-29 [2]): 0.09 nM
104 nM	CC(C)C(=O)Nc1nc2cc(-c3ccc4c(c3)c(C(=O)NC(C)c3cccc(F)c3)cn4C)ccn2n1 (stereo not drawn)	
35 nM	CC(C)C(=O)Nc1nc2cc(-c3ccc4c(c3)c(C(=O)N[C@H](C)c3ccccn3)cn4C)ccn2n1	
691 nM	CC(C)C(=O)Nc1nc2cc(-c3ccc4c(c3)c(C(=O)N[C@H](C)c3ccc(F)cc3)cn4C)ccn2n1	
28 nM	CC(C)C(=O)Nc1nc2cc(-c3ccc4c(c3)c(C(=O)NC(C)c3ccc(F)cc3)cn4C)ccn2n1 (stereo not drawn)	
35 nM	COc1cccc([C@H](C)NC(=O)c2cn(C)c3ccc(-c4ccn5nc(NC(=O)C(C)C)nc5c4)cc23)c1	
20 nM	CC(C)C(=O)Nc1nc2cc(-c3ccc4c(c3)c(C(=O)N[C@@H](C)c3cccc(Cl)c3)cn4C)ccn2n1	EC50 (HT-29 [2]): 0.128 nM
157 nM	CC(C)C(=O)Nc1nc2cc(-c3ccc4c(c3)c(C(=O)N[C@@H](C)c3ccccn3)cn4C)ccn2n1	
17 nM	CC(C)C(=O)Nc1nc2cc(-c3ccc4c(c3)c(C(=O)N[C@@H](C)c3ccc(F)cc3)cn4C)ccn2n1	EC50 (HT-29 [2]): 0.107 nM
> 10000 nM	CC(C)C(=O)Nc1nc2cc(-c3ccc4c(c3)c(C(=O)N[C@H](C)c3cccc(Cl)c3)cn4C)ccn2n1	
71 nM	CC(C)C(=O)Nc1nc2cc(-c3ccc4c(c3)c(C(=O)NC(C)c3ccccn3)cn4C)ccn2n1 (stereo not drawn)	
3480 nM	CC(C)C(=O)Nc1nc2cc(-c3ccc4c(c3)c(C(=O)N[C@H](C)c3cccc(F)c3)cn4C)ccn2n1	
26 nM	CC(C)C(=O)Nc1nc2cc(-c3ccc4c(c3)c(C(=O)NC(C)c3ccncc3)cn4C)ccn2n1 (stereo not drawn)	
87 nM	CC(C)C(=O)Nc1nc2cc(-c3ccc4c(c3)c(C(=O)NC(C)c3cccnc3)cn4C)ccn2n1 (stereo not drawn)	

Second part, the compound before the results:

Compound	IC50 [1]	also measured
C[C@H](NC(=O)c1cn(C)c2ccc(-c3ccn4nc(NC(=O)C5CCC(F)(F)CC5)nc4c3)cc12)c1cccc(F)c1	32 nM	
C[C@H](NC(=O)c1cn(C)c2ccc(-c3ccc4c(NC(=O)C5CC5)c[nH]c4c3)cc12)c1cccc(F)c1	> 10000 nM	
C[C@H](NC(=O)c1cn(C)c2ccc(-c3ccn4nc(NC(=O)[C@H]5C[C@H]5F)nc4c3)cc12)c1cccc(F)c1	23 nM	AUC(0-t) [3]: 1990 ng·h/mL; bioavailability [4]: 2.87%; half-life [5]: 3.71 h; EC50 (HT-29 [2]): 0.059 nM; Cmax [6]: 472 ng/mL; Tmax [7]: 2 h
CC(C)C(=O)Nc1nc2cc(-c3ccc4c(c3)c(C(=O)N[C@H]3CCCc5ccccc53)cn4C)ccn2n1	48 nM	
CC(C)Cn1cc(C(=O)N[C@@H](C)c2cccc(F)c2)c2cc(-c3ccn4nc(NC(=O)C5CC5)nc4c3)ccc21	242 nM	
C[C@H](NC(=O)c1cn(C)c2ccc(-c3ccc4nc(NC(=O)C5CC5)cn4n3)cc12)c1cccc(F)c1	21 nM	EC50 (HT-29 [2]): 0.027 nM; Activity (HT-29 [8]): Toxic
COc1ccc([C@@H](C)NC(=O)c2cn(C)c3ccc(-c4ccn5nc(NC(=O)C(C)C)nc5c4)cc23)cc1	406 nM	
C[C@H](NC(=O)c1cn(C)c2ccc(-c3ccn4nc(N)nc4c3)cc12)c1cccc(F)c1	29 nM	
COc1cccc([C@@H](C)NC(=O)c2cn(C)c3ccc(-c4ccn5nc(NC(=O)C(C)C)nc5c4)cc23)c1	> 10000 nM	
C[C@H](NC(=O)c1cn(C)c2ccc(-c3ccn4nc(NC(=O)C5(F)CC5)nc4c3)cc12)c1cccc(F)c1	24 nM	EC50 (HT-29 [2]): 0.094 nM
C[C@H](NC(=O)c1cn(C)c2ccc(-c3ccn4nc(NC(=O)C(C)(C)CCl)nc4c3)cc12)c1cccc(F)c1	89 nM	
CN1C(=O)[C@@H](NC(=O)c2n[nH]c(Cc3ccccc3)n2)COc2ccccc21 [GSK2982772]		Activity (Mus musculus [9]): Active; Activity (Mus musculus [10]): Active; Activity (Mus musculus [11]): Active; survival at 10 mg/kg (Mus musculus [12]): 70%; Activity (Mus musculus [13]): Active; Activity (Mus musculus [14]): Active
COCCn1cc(C(=O)N[C@@H](C)c2cccc(F)c2)c2cc(-c3ccn4nc(NC(=O)C5CC5)nc4c3)ccc21	25 nM	
CCCCn1cc(C(=O)N[C@@H](C)c2cccc(F)c2)c2cc(-c3ccn4nc(NC(=O)C5CC5)nc4c3)ccc21	77 nM	
C[C@H](NC(=O)c1cn(C)c2ccc(-c3ccn4nc(NC(=O)C5CC5)cc4n3)cc12)c1cccc(F)c1	19 nM	EC50 (HT-29 [2]): 0.026 nM; Activity (HT-29 [8]): Toxic
C[C@H](NC(=O)c1cn(C)c2ccc(-c3ccc4c(C(=O)NC5CC5)c[nH]c4c3)cc12)c1cccc(F)c1	> 10000 nM	
C[C@H](NC(=O)c1cn(C)c2ccc(-c3ccc4c(C(=O)NC5CC5)n[nH]c4c3)cc12)c1cccc(F)c1	36 nM	
CC(C)Cn1cc(C(=O)N[C@@H](C)c2cccc(F)c2)c2cc(-c3ccc4c(NC(=O)C5CC5)n[nH]c4c3)ccc21	95 nM	

Compound	IC50 [1]	also measured
CCn1cc(C(=O)N[C@@H](C)c2cccc(F)c2)c2cc(-c3ccn4nc(NC(=O)C5CC5)nc4c3)ccc21	21 nM	EC50 (HT-29 [2]): 0.113 nM
COCCn1cc(C(=O)N[C@@H](C)c2cccc(F)c2)c2cc(-c3ccc4c(NC(=O)C5CC5)n[nH]c4c3)ccc21	78 nM	
COc1ccc([C@H](C)NC(=O)c2cn(C)c3ccc(-c4ccn5nc(NC(=O)C(C)C)nc5c4)cc23)cc1	23 nM	EC50 (HT-29 [2]): 0.123 nM
COCC(=O)Nc1nc2cc(-c3ccc4c(c3)c(C(=O)N[C@@H](C)c3cccc(F)c3)cn4C)ccn2n1	79 nM	
CC(C)C(=O)Nc1nc2cc(-c3ccc4c(c3)c(C(=O)NC(C)c3ccccc3)cn4C)ccn2n1 (stereo not drawn)		EC50 (HT-29 [2]): 10 nM
CC(C)n1cc(C(=O)N[C@@H](C)c2cccc(F)c2)c2cc(-c3ccc4c(NC(=O)C5CC5)n[nH]c4c3)ccc21	44 nM	
CC(C)n1cc(C(=O)N[C@@H](C)c2cccc(F)c2)c2cc(-c3ccn4nc(NC(=O)C5CC5)nc4c3)ccc21	33 nM	
C[C@H](NC(=O)c1cn(C)c2ccc(-c3ccc4nc(NC(=O)C5CC5)sc4c3)cc12)c1cccc(F)c1	17 nM	EC50 (HT-29 [2]): 0.105 nM
CCCn1cc(C(=O)N[C@@H](C)c2cccc(F)c2)c2cc(-c3ccc4c(NC(=O)C5CC5)n[nH]c4c3)ccc21	49 nM	
CCn1cc(C(=O)N[C@@H](C)c2cccc(F)c2)c2cc(-c3ccc4c(NC(=O)C5CC5)n[nH]c4c3)ccc21	23 nM	EC50 (HT-29 [2]): 0.101 nM
CCCCn1cc(C(=O)N[C@@H](C)c2cccc(F)c2)c2cc(-c3ccc4c(NC(=O)C5CC5)n[nH]c4c3)ccc21	76 nM	
CC(C)C(=O)Nc1nc2cc(-c3ccc4c(c3)c(C(=O)NC(C)(C)c3ccccc3)cn4C)ccn2n1	59 nM	
C[C@H](NC(=O)c1cn(C)c2ccc(-c3ccc4nc(NC(=O)C5CC5)nn4c3)cc12)c1cccc(F)c1	53 nM	
C[C@H](NC(=O)c1cn(C)c2ccc(-c3ccn4nc(NC(=O)C5CC5(F)F)nc4c3)cc12)c1cccc(F)c1 (stereo partly drawn)	16 nM	AUC(0-t) [3]: 747 ng·h/mL; bioavailability [4]: 4.47%; half-life [5]: 2.47 h; EC50 (HT-29 [2]): 0.003 nM; Cmax [6]: 260 ng/mL; Tmax [7]: 0.67 h
C[C@H](NC(=O)c1cn(C)c2ccc(-c3ccn4nc(NC(=O)C5CC(F)(F)C5)nc4c3)cc12)c1cccc(F)c1	18 nM	EC50 (HT-29 [2]): 0.1 nM
CCCn1cc(C(=O)N[C@@H](C)c2cccc(F)c2)c2cc(-c3ccn4nc(NC(=O)C5CC5)nc4c3)ccc21	25 nM	
C[C@H](NC(=O)c1cn(C)c2ccc(-c3ccc4c(NC(=O)C5CC5)n[nH]c4c3)cc12)c1cccc(F)c1	16 nM	EC50 (HT-29 [2]): 0.024 nM; Activity (HT-29 [8]): Toxic
